Values of other authors in patent US20080255132A1, “Combination Therapy Comprising the Use of Et-743 and Paclitaxel for Treating Cancer” (priority 2003, published 2008).

Key:
[1] = system: sarcoma and breast and ovarian carcinoma; conditions: phase I, 1-, 3-, 24-, 72-hour i.v. infusion and 1 hour daily x5 schedules
[2] = system: human tumor xenografts, including melanoma and ovarian and breast carcinoma; conditions: human tumor xenografts grown in athymic mice

In the case of COc1cc2c(cc1O)CCN[C@]21CS[C@@H]2c3c(OC(C)=O)c(C)c4c(c3[C@H](COC1=O)N1[C@@H]2[C@H]2c3c(cc(C)c(OC)c3O)C[C@@H]([C@@H]1O)N2C)OCO4 [ET-743, ecteinascidin 743], the Responses [1] is listed as “Promising responses” and the Antineoplastic activity [2] is listed as “potent antineoplastic activity”.
